# From patent US20060142374A1, “Crystal for oral solid drug and oral solid drug for dysuria treatment containing the same” (KISSEI PHARMACEUTICAL CO., LTD., priority 2002, published 2006)
# Tests used:
# Assay type in all cases: physicochemical
# [1] = Stability to light on preservation; conditions: content of active ingredient decreases depending on preserved condition with time
# [2] = Stability test (appearance by naked eye, purity by liquid chromatography after storage); conditions: for Stability in respect of purity and appearance: summary of storage conditions 1-4
# Protocol: Appearance and purity of each crystal obtained in Examples 1-3 and an amorphous obtained by freeze-drying a solution of KMD-3213 in dioxane were determined after allowing to stand under following conditions. As for appearance, it was determined by color and properties with the naked eye. Purity was determined by integral percentage method with liquid chromatography.
# Condition 1: Allowing to stand at 40° C. in the constant temperature device for 28 days
# Condition 2: Allowing to stand at 60° C. in the constant temperature device for 28 days
# Condition 3: Allowing to stand at 80° C. in the constant temperature device for 25 days
# Condition 4: Allowing to stand at 40° C. and relative humidity 75% in the constant temperature device for 28 days
# The Liquid Chromatography Condition:
# Detector: ultraviolet absorption spectrophotometer (wave length: 225 nm)
# Column: Intertsil ODS-3 (GL Science, 5 μm, 4.6 mm×25 cm)
# Column temperature: about 25° C.
# Mobile Phase: To 3.9 g of sodium dihydrogen phosphate was added 2.5 mL of diluted phosphoric acid solution (1→20) accurately, and water was added to make 1000 mL of a solution accurately. A 5:2 mixed solution of the resulting solution and acetonitrile.
# [3] = Moisture absorption test (weight change after storage); conditions: for Moisture absorption (hygroscopicity): summary, compared with the amorphous
# Protocol: In the same manner as that of Test Example 1, the crystals obtained in Examples 1-3 and the amorphous were used for the test. Approximately 1 g of test substance was weighed accurately and put it into a sample vial. After the test substance was allowed to stand in an opening constant temperature and humidity device under following condition, their differences of weights were measured.
# Condition 1: Allowing to stand at 25° C. and 60% of relative humidity in the constant temperature and humidity device for 3 days
# Condition 2: Allowing to stand at 40° C. and 75% of relative humidity in the constant temperature and humidity device for 3 days
# [4] = Condition 1: 40° C. for 28 days
# [5] = Condition 2: 60° C. for 28 days
# [6] = Condition 3: 80° C. for 25 days
# [7] = Condition 4: 40° C. and relative humidity 75% for 28 days
# [8] = Initial, liquid chromatography, integral percentage method
# [9] = Condition 1: 25° C. and 60% relative humidity for 3 days
# [10] = Condition 2: 40° C. and 75% relative humidity for 3 days
Stability for light [1],"Appearance [2, 4]","Purity (%) [2, 4]","Appearance [2, 5]","Purity (%) [2, 5]","Appearance [2, 6]","Purity (%) [2, 6]","Appearance [2, 7]","Purity (%) [2, 7]",Appearance ([2]; Initial),"Purity (%) [2, 8]","Change(%) of weight [3, 9]","Change(%) of weight [3, 10]",Stability in respect of purity and appearance ([2]; listed as crystal form a),Stability in respect of purity and appearance ([2]; listed as crystal form α),Moisture absorption (hygroscopicity) [3],Compound
unstable for light relatively,–,–,–,–,–,–,–,–,–,–,–,–,–,–,–,C[C@H](Cc1cc2c(c(C(N)=O)c1)N(CCCO)CC2)NCCOc1ccccc1OCC(F)(F)F [KMD-3213]
–,White powder,99.66%,Pale yellow,99.56%,Pale yellowish,99.53%,White powder,99.71%,White powder,99.79%,+1.61%,+1.31%,–,–,–,"C[C@H](Cc1cc2c(c(C(N)=O)c1)N(CCCO)CC2)NCCOc1ccccc1OCC(F)(F)F [amorphous, KMD-3213]"
–,White powder,99.84%,White powder,99.84%,Pale yellow,99.58%,White powder,99.85%,White powder,99.90%,−0.01%,−0.20%,extremely stable,the most stable,absorbing moisture scarcely,"C[C@H](Cc1cc2c(c(C(N)=O)c1)N(CCCO)CC2)NCCOc1ccccc1OCC(F)(F)F [α, KMD-3213]"
–,Pale yellow powder,99.73%,Pale yellowish,99.57%,Pale brown powder,98.42%,Pale yellow powder,99.69%,Pale yellow powder,99.83%,+0.07%,−0.08%,–,–,absorbing moisture scarcely,"C[C@H](Cc1cc2c(c(C(N)=O)c1)N(CCCO)CC2)NCCOc1ccccc1OCC(F)(F)F [β, KMD-3213]"
–,Pale yellow powder,99.85%,Pale yellow powder,99.84%,Pale yellow powder,99.64%,Pale yellow powder,99.85%,Pale yellow powder,99.88%,0.00%,−0.19%,–,–,absorbing moisture scarcely,"C[C@H](Cc1cc2c(c(C(N)=O)c1)N(CCCO)CC2)NCCOc1ccccc1OCC(F)(F)F [γ, KMD-3213]"
